Data: US20160264593A1 (priority 2013, published 2016)

Experiment: in vivo
Conditions: rat, in vivo; for Tmax: Tmax of 100; for MRT: MRT of 100
Description: 100 was administrated via iv route at 0.5, 1.0 and 1.5 mg/kg into SD rats. The blood, liver and brain tissue samples were collected at predetermined times from rats.
Twelve (12) female SD rats per group were dosed by iv with 100. The rats were fasted overnight prior to dosing, with free access to water. Foods were withheld for 2 hours post-dose. Blood, liver and brain tissue samples in two animals each group were collected at each time point, within 10% of the scheduled time for each time point. Two extra animals were used for analytic method development. Blood (>0.3 mL) were collected via aorta abdominalis in anaesthetic animalsinto tubes containing heparin at 15 min, 1, 2, 6, 10 and 24 hours after iv administration. Liver and brain tissues were collected immediately after animal death. The liver and brain tissues were excised and rinsed with cold saline to avoid blood residual. Upon collection, each sample was placed on ice and the blood samples were subsequently centrifuged (4° C., 11000 rpm, 5 min) to separate plasma. The obtained plasma, liver and brain tissue samples were stored at −70° C. until LC-MS/MS analysis.
AUC0-∞ (AUC/NF) is the area under the plasma concentration-time curve with last concentration extrapolated based on the elimination rate constant.

[1] = female, Sprague-Dawley (SD), iv, 0.5 mg/kg, 100 brain concentration
[2] = female, Sprague-Dawley (SD), iv, 0.5 mg/kg, 100 liver concentration
[3] = female, Sprague-Dawley (SD), iv, 1 mg/kg, 100 liver concentration
[4] = female, Sprague-Dawley (SD), iv, 1.5 mg/kg, 100 brain concentration
[5] = female, Sprague-Dawley (SD), iv, 1.5 mg/kg, 100 liver concentration
[6] = female, Sprague-Dawley, iv, 0.5 mg/kg, 100 plasma concentration
[7] = female, Sprague-Dawley, iv, 1 mg/kg, 100 plasma concentration
[8] = female, Sprague-Dawley, iv, 1.5 mg/kg, 100 plasma concentration

Structure (SMILES): CN1CCN(C(=O)C2C3CCC(O3)C2C(=O)O)CC1 (stereo not drawn) [Compound 100, 3-(4-methylpiperazine-1-carbonyl)-7-oxa-bicyclo[2,2,1]-heptane-2-carboxylic acid]
- AUC(0-inf) (female, SD, iv, 0.5 mg/kg): 706 ng·h/mL
- AUC(0-t) (female, SD, iv, 0.5 mg/kg): 696 ng·h/mL
- Tmax of 100 (female, SD, iv, 0.5 mg/kg): 0.25 h
- Cmax (female, SD, iv, 0.5 mg/kg, Cmax of 100): 1110 ng/mL
- Tmax (female, SD, iv, 0.5 mg/kg): 0.25 h
- AUC(0-inf) (female, SD, iv, 1 mg/kg): 2830 ng·h/mL
- AUC(0-t) (female, SD, iv, 1 mg/kg): 1920 ng·h/mL
- Tmax of 100 (female, SD, iv, 1 mg/kg): 0.25 h
- Cmax (female, SD, iv, 1 mg/kg, Cmax of 100): 2380 ng/mL
- MRT (female, SD, iv, 1 mg/kg): 2.68 h
- Tmax (female, SD, iv, 1 mg/kg): 0.25 h
- AUC(0-inf) (female, SD, iv, 1.5 mg/kg): 8640 ng·h/mL
- AUC(0-t) (female, SD, iv, 1.5 mg/kg): 7400 ng·h/mL
- Cmax (female, SD, iv, 1.5 mg/kg, Cmax of 100): 3660 ng/mL
- MRT (female, SD, iv, 1.5 mg/kg): 2.57 h
- half-life (female, SD, iv, 1.5 mg/kg, T½ of 100): 1.93 h
- concentration at 0.25 h [1]: 15.3 ng/g
- concentration at 0.25 hr [1]: 17.4 ng/g
- concentration at 1 hr [1]: 6.31 ng/g
- concentration at 0.25 h [2]: 520 ng/g
- concentration at 2 h [2]: 109 ng/g
- concentration at 6 h [2]: 4.8 ng/g
- concentration at 2 h (female, Sprague-Dawley (SD), iv, 0.5 mg/kg, 100 plasma concentration): 22.6 ng/mL
- concentration at 0.25 h [3]: 1300 ng/g
- concentration at 1 h [3]: 865 ng/g
- concentration at 0.25 h [4]: 46.9 ng/g
- concentration at 1 h [4]: 28.2 ng/g
- concentration at 2 h [4]: 27.2 ng/g
- concentration at 6 h [4]: 4.23 ng/g
- concentration at 0.25 h [5]: 1980 ng/g
- concentration at 1 h [5]: 2140 ng/g
- concentration at 2 h [5]: 2400 ng/g
- concentration at 6 h [5]: 407 ng/g
- concentration at 10 h [5]: 5.25 ng/g
- 100 liver concentration (female, Sprague-Dawley (SD), iv, 1.5 mg/kg, 6 h): 536 ng/g
- concentration at 0.25 h [6]: 1000 ng/mL
- concentration at 1 h [6]: 192 ng/mL
- concentration at 2 h [6]: 25.8 ng/mL
- 100 plasma concentration (female, Sprague-Dawley, iv, 0.5 mg/kg, 2 h): 19.4 ng/mL
- concentration at 0.25 h [7]: 2120 ng/mL
- concentration at 1 h [7]: 354 ng/mL
- concentration at 6 h [7]: 3.27 ng/mL
- AUC(0-t) (female, Sprague-Dawley, iv, 1.5 mg/kg): 696 to 7400 ng·h/mL
- concentration at 0.25 h [8]: 3780 ng/mL
- concentration at 1 h [8]: 1760 ng/mL
- concentration at 2 h [8]: 1310 ng/mL
- concentration at 6 h [8]: 263 ng/mL
- half-life (female, Sprague-Dawley, iv, 1.5 mg/kg, T1/2 of 100 in brain): 1.67 to 1.93 h
- half-life (female, Sprague-Dawley, iv, 1.5 mg/kg, T1/2 of 100 in liver): 0.78 to 2.01 h
- half-life (female, Sprague-Dawley, iv, 1.5 mg/kg, T1/2 of 100 in plasma): 0.31 to 2.2 h
- Cmax (female, Sprague-Dawley, iv, 1.5 mg/kg, mean Cmax of 100 in brain): 17.4 to 43.5 ng/g
- Cmax (female, Sprague-Dawley, iv, 1.5 mg/kg, mean Cmax of 100 in liver): 586 to 2550 ng/g
- AUC of 100 versus dose level (statement): increased proportionally
- 100 detectable in brain tissue samples (iv): detectable
- 100 detectable in liver tissue samples (iv): detectable
- 100 in brain tissue (iv): below limit of quantification
- 100 in liver tissue (iv): below limit of quantification
- AUCINF of 100 (iv, 0.5 mg/kg): 902.2 ng·h/g
- AUClast of 100 in brain (iv, 1.5 mg/kg): 10.8˜125.5 ng·h/g
- AUClast of 100 in liver (iv, 1.5 mg/kg): 758.6˜9081.0 ng·h/g
